“Also recorded” adds a separate entry of the source. Like-named read-outs stand apart in the source and are kept apart here.
Legend:
Assay type in all cases: in vivo, rat
[1] = tested on: unilateral 6-OHDA-lesioned rats; assay: Distance traveled in actometers, monotherapy (without L-Dopa)
Method: (§1) To protect norepinephrinergic neurons, animals were administered imipramine HCl (Sigma) 15 minutes before surgery. They were subsequently anesthetized with ketamine (Ceva, 75 mg/kg) and xylazine (Bayer, 10 mg/kg) and placed in stereotaxic frame (David Kopf Instrument). 6-OHDA was injected into the right ascending medial forebrain bundle at the following coordinates (in mm) relative to bregma and surface of the dura, AP = −3.5, ML = −1.5, DV = −8.7. Each rat received one injection of 6-OHDA (4 µg/µl) over a period of 5 minutes (0.5 µl/min) for a total of 10 µg per rat. Animals were monitored for 3 weeks to ensure full recovery and habituation to the environment and experimenters.
(§2) On day 21 post surgery, all rats were challenged with a small dose of subcutaneously administered apomorphine (Sigma, 0.05 mg/kg). Rats showing more than 90 contralateral rotations (360°) over a 45-minute recording period were included in the study. […] For each experiment, rats were allocated to the different experimental groups in order to get the same mean level of basal activity measured at the apomorphine challenge amongst the different experimental groups.
(§3) Drug-naïve separate rats were tested individually in clear acrylic chambers (LE8811 IR, Panlab). Locomotion was detected and measured by 16 infrared light-beam sensors located on each side of the enclosure at a height of 3 cm. Sensors were spaced such that the light beams formed a matrix of 15×15 squares over the surface. Activity counts were recorded on a computer and Acti-Track software (Actitrack, Panlab) was used to convert raw data into “distance traveled” and “rearing counts” for analysis as relevant dependent variables.
(§4) Six different combinations of A2A/NR2B antagonists were tested without L-Dopa. For each combination, there were four different procedures: vehicle only; A2A antagonist followed by vehicle; vehicle followed by the NR2B antagonist and A2A antagonist followed by the NR2B antagonist. The drugs, doses and combinations are described in Table 3. After drug administration, rats were placed in actometers (open-field) for monitoring the general level of motor activity (distance traveled and rearing counts).
(§5) Before undertaking the study, each A2A and NR2B antagonist was tested individually. The doses were selected on the basis of preliminary dose-response curves performed separately for each drug and submaximal dose (i.e. response observed is not at its maximal level) of each drug was selected for the combination studies. The two drugs were administered separately via an intraperitoneal (ip) injection with a 2-minute interval between the two drugs. Five minutes after the second injection, animals were placed in the testing cage for behavioural recording. Due to formulation and exposure issues, Tozadenant and Radiprodil had to be administered orally and therefore recording was started 60 minutes post dosing at this corresponds to maximum plasma concentrations. Eight drug-naïve animals were used for each of the four procedures; 32 in total for each combination. All behavioral experiments were conducted between 8.00 AM and 2.00 PM at the latest. Preliminary pharmacokinetic assays investigated the plasma and brain disposition of selected drugs administered alone or in combination (ie. Tozadenant/Radiprodil, and Sch-58261/Co-101244; 3 animals per group). Tozadenant and Radiprodil were measured in samples obtained 60 minutes after single oral administration at 30 mg/kg. Sch-58261 and Co-101244 were measured in samples collected 90 min after single intraperitoneal administration at 3 mg/kg.
(§6) The effects of A2A and NR2B antagonists on the level of motor activity (i.e. distance traveled and rearing counts) were assessed with three-way mixed ANOVA, combining the A2A receptor antagonist (2 levels, vehicle and the A2A drug) and the NR2B antagonist (2 levels, vehicle and the NR2B drug) as between-group factors with the time as within-subjects factor (6 or 9 levels). […]

[2] = tested on: unilateral 6-OHDA-lesioned rats; assay: Rearing counts in actometers, monotherapy (without L-Dopa)
Method: as §1, §2, §3, §4, §5, §6

[3] = Plasma and brain exposure in satellite lesioned rats; details: rat, mean ± SD; for concentration at 60 min: po, 30 mg/kg, 60 min after dosing; for concentration at 90 min: ip, 3 mg/kg, 90 min after dosing
Method: Satellite lesioned rats (400–450 g) were anesthetized with isoflurane and sacrificed by exsanguination. Blood samples were collected in EDTA centrifuged 10 min at 3000 rpm at 4°C to obtain plasma and stored at −20°C prior the analysis. Brains were perfused by saline collected and immediately stored at −20°C prior the analysis. Brain samples were added to 4 volumes of water before being homogenized. A structural analog compound was added as internal standard to the samples and proteins were crashed using 8 volumes of acetonitrile. Compounds were analyzed on an API5000 mass spectrometer (ABSciex, Framingham, MA, USA.) equipped with a turbo ion spray source and interfaced with an Agilent 1290 Infinity LC system (Agilent Technologies, Waldbroon, Germany). The mass spectrometer was operated in the positive ionization mode with Multiple Reactions Monitoring used to quantify the various analytes (407 to 292 for Tozadenant; 398 to 109 for Radiprodil, 346 to 105 for Sch-58261 and 342 to 100 for Co-101244). A Waters HSS T3 column (2.1×30 mm, 1.8 µm) was used. The mobile phase consisted of 100% water with 0.1% formic acid (phase A) and 100% acetonitrile with 0.1% formic acid (phase B). The flow rate was 1 mL/min. A linear gradient was performed from 0 to 1 min (95 to 30% phase A), a jump to 90% B in 0.01 min, a hold period of 1.29 min at 90% phase B followed by equilibration at the initial condition was applied before the following injection.
as §5

[4] = Preladenant 0.1 mg/kg ip, Radiprodil 1 mg/kg ip
[5] = Tozadenant 30 mg/kg po, Radiprodil 3 mg/kg po
[6] = brain, administered alone, oral 30 mg/kg, expressed per g tissue, 3 animals, read-out: Brain concentration
[7] = brain, administered in combination Tozadenant + Radiprodil, both oral 30 mg/kg, expressed per g tissue, 3 animals, read-out: Brain concentration
[8] = plasma, administered alone, oral 30 mg/kg, 3 animals, read-out: Plasma concentration
[9] = plasma, administered in combination Tozadenant + Radiprodil, both oral 30 mg/kg, 3 animals, read-out: Plasma concentration
[10] = Sch-58261 1 mg/kg ip, Co-101244 1 mg/kg ip
[11] = Sch-58261 1 mg/kg ip, Merck 22 1 mg/kg ip

## O=C(Nc1ccc2[nH]c(=O)oc2c1)C(=O)N1CCC(Cc2ccc(F)cc2)CC1 [Radiprodil]
[1]; [4]
  Distance traveled, drugs main effect, p (three-way mixed ANOVA): p<0.001
  Distance traveled, drugs × time effect, p (three-way mixed ANOVA): p<0.001
[1]; [5]
  Distance traveled, drugs alone vs vehicle, p (Newman-Keuls): not all drugs when administered alone improved distance traveled; also recorded: Not significant
  Distance traveled, drugs main effect, p (three-way mixed ANOVA): p<0.01
  Distance traveled, drugs × time effect, p (three-way mixed ANOVA): p<0.001
[2]; [4]
  Rearing counts, drugs alone vs vehicle, p (Newman-Keuls): Radiprodil, not significant
  Rearing counts, drugs main effect, p (three-way mixed ANOVA): p<0.001
  Rearing counts, drugs × time effect, p (three-way mixed ANOVA): p<0.01
[2]; [5]
  Rearing counts, drugs alone vs vehicle, p (Newman-Keuls): Not significant
  Rearing counts, drugs main effect, p (three-way mixed ANOVA): p<0.01
  Rearing counts, drugs × time effect, p (three-way mixed ANOVA): p<0.001
[2]; drug administered alone
  Rearing counts, drug alone in comparison to vehicle rats: not
[3]; [6]
  concentration at 60 min: 2630 ± 560 ng/mL
[3]; [7]
  concentration at 60 min: 2590 ± 2480 ng/mL
[3]; [8]
  concentration at 60 min: 4960 ± 850 ng/mL
[3]; [9]
  concentration at 60 min: 5590 ± 2930 ng/mL

## Nc1nc2c(cnn2CCc2ccccc2)c2nc(-c3ccco3)nn12 [Sch-58261]
[1]; [10]
  Distance traveled, drugs alone vs vehicle, p (Newman-Keuls): Both p<0.01
  Distance traveled, drugs main effect, p (three-way mixed ANOVA): p<0.001
  Distance traveled, drugs × time effect, p (three-way mixed ANOVA): p<0.001
[1]; [11]
  Distance traveled, drugs alone vs vehicle, p (Newman-Keuls): Both p<0.01
  Distance traveled, drugs main effect, p (three-way mixed ANOVA): p<0.001
  Distance traveled, drugs × time effect, p (three-way mixed ANOVA): Not significant
[1]; drug administered alone
  Distance traveled, drug alone in comparison to vehicle-treated controls: significant increase
[2]; [10]
  Rearing counts, drugs alone vs vehicle, p (Newman-Keuls): Both p<0.05
  Rearing counts, drugs main effect, p (three-way mixed ANOVA): p<0.001
  Rearing counts, drugs × time effect, p (three-way mixed ANOVA): p<0.001
[2]; [11]
  Rearing counts, drugs alone vs vehicle, p (Newman-Keuls): Sch-58261 p<0.05
  Rearing counts, drugs main effect, p (three-way mixed ANOVA): p<0.001
  Rearing counts, drugs × time effect, p (three-way mixed ANOVA): p<0.001
[3]; brain, administered alone, ip 3 mg/kg, expressed per g tissue, 3 animals (Co-101244 n = 2), read-out: Brain concentration
  concentration at 90 min: 246 ± 34.7 ng/mL
[3]; brain, administered in combination Sch-58261+Co-101244, both ip 3 mg/kg, expressed per g tissue, 3 animals, read-out: Brain concentration
  concentration at 90 min: 264 ± 38.3 ng/mL
[3]; plasma, administered alone, ip 3 mg/kg, 3 animals (Co-101244 n = 2), read-out: Plasma concentration
  concentration at 90 min: 97.2 ± 10.1 ng/mL
[3]; plasma, administered in combination Sch-58261+Co-101244, both ip 3 mg/kg, 3 animals, read-out: Plasma concentration
  concentration at 90 min: 112 ± 4.16 ng/mL

## COc1ccc(N2CCOCC2)c2sc(NC(=O)N3CCC(C)(O)CC3)nc12 [Tozadenant]
[1]; [5]
  Distance traveled, drugs alone vs vehicle, p (Newman-Keuls): not all drugs when administered alone improved distance traveled; also recorded: Not significant
  Distance traveled, drugs main effect, p (three-way mixed ANOVA): p<0.05
  Distance traveled, drugs × time effect, p (three-way mixed ANOVA): p<0.001
[2]; [5]
  Rearing counts, drugs alone vs vehicle, p (Newman-Keuls): exception; also recorded: Not significant
  Rearing counts, drugs main effect, p (three-way mixed ANOVA): p<0.01
  Rearing counts, drugs × time effect, p (three-way mixed ANOVA): p<0.001
[3]; [6]
  concentration at 60 min: 180 ± 40 ng/mL
[3]; [7]
  concentration at 60 min: 110 ± 40 ng/mL
[3]; [8]
  concentration at 60 min: 6050 ± 950 ng/mL
[3]; [9]
  concentration at 60 min: 5040 ± 140 ng/mL
